Reference: PMC9232501, “Results of the phase I CCTG IND.231 trial of CX-5461 in patients with advanced solid tumors enriched for DNA-repair deficiencies” (Nature Communications, 2022)
Values joined by “and” are separate entries in the source; they are usually repeats but may differ in a detail not shown here. Identical values can stand only once.

Legend:
[1] = tested on: WT HAP1 cells; experiment: HAP1 WT cytotoxicity (WST-1 assay) with and without UVA; type: cell-based; details: for WST-1 raw signal (Figure 5h): replicates
Procedure: Fig. 5 Comparison of G4 ligand photosensitization. […] Vertical axis, fractional survival, horizontal axis log10 drug concentration (M) (f) Representative images of CPD immunofluorescent staining under UV and drug treatment conditions for U2OS cells, quantified from biological duplicates in (g) (h) Scale bar = 100um. U2OS cells were treated with drug or vehicle control, then immediately irradiated with UVA 125 mJ/cm^2; and fixed 1 h later for immunofluorescence staining with CPD antibody. g Distribution of mean intensity of CPD level per cell (total n = in labels), with two biological repeats per condition. Vertical axis, mean CPD intensity per cell, horizontal axis, conditions (h) WT or KO XPA HAP1 cells assayed for cytotoxicity. Vertical axis, fractional survival (WST-1 assay). The horizontal axis, log10 drug concentration (M). Error bars = standard deviation of the mean. Three biological repeats per condition.
Human epidermal keratinocytes (HEKa) cells were sourced from Thermo Fisher Scientific, and were grown in EpiLife™ Medium with HKGS. HAP WT and XPA knockout cell lines (Horizon Discovery) were cultured in IMDM, 10% FCS. Human HCT116 cells, U2OS cells (ATCC) were grown in McCoy’s 5 A medium with 10% FBS and L-glutamine. All cell lines are mycoplasma free and have been authenticated by STR or SNP profiling. CX-5461 was provided by Senhwa Biosciences, Inc. PDS is from Sigma-Aldrich, BRACO-19 from Alfa Chemistry, PhENDC3 is from Sigma-Aldrich, γ -H2AX antibody from Abcam (1:1000 for IF) and CPD antibody (1:1500) from Cosmo Bio Ltd. (Catalog number: CAC-NM-DAD-001). The WST-1 assay was performed as previously described, γ H2AX foci staining was performed as previously described. Immunofluorescence staining of CPD was performed according to the protocol from the manufacturer (Cosmo Bio Ltd).

[2] = tested on: patients with hematologic malignancies; parameters: method as in PMID 31092402; details: cited from earlier work
[3] = tested on: G-quadruplex (G4) DNA; parameters: method as in PMID 28211448; details: in vitro and in vivo; cited from earlier work

In the case of `Cc1cnc(CNC(=O)c2c(=O)c3ccc(N4CCCN(C)CC4)nc3n3c2sc2ccccc23)cn1` [CX-5461], the “WST-1 raw signal (Figure 5h)” value ([1]; conc 1.00E-07, 125 mJ/cm2 WT) is reported as 0.124 and 0.1238, the “WST-1 raw signal (Figure 5h)” value ([1]; conc 1.00E-07, WT No UV) is reported as 0.1248 and 0.1255 and the “WST-1 raw signal (Figure 5h)” value ([1]; conc 1.25E-08, 125 mJ/cm2 WT) is reported as 0.124 and 0.1239. For the same compound, the “WST-1 raw signal (Figure 5h)” value ([1]; conc 1.25E-08, WT No UV) was 2.9461 and 2.8715, the “WST-1 raw signal (Figure 5h)” value ([1]; conc 1.56E-09, 125 mJ/cm2 WT) was 1.6148 and 1.5014 and the “WST-1 raw signal (Figure 5h)” value ([1]; conc 1.56E-09, WT No UV) was 3.4383 and 3.4235. The “WST-1 raw signal (Figure 5h)” value ([1]; conc 2.00E-07, 125 mJ/cm2 WT) was 0.1302 and 0.1263, the “WST-1 raw signal (Figure 5h)” value ([1]; conc 2.00E-07, WT No UV) was 0.1284 and 0.1271 and the “WST-1 raw signal (Figure 5h)” value ([1]; conc 2.50E-08, 125 mJ/cm2 WT) was 0.1237 and 0.1243. For the same compound, the “WST-1 raw signal (Figure 5h)” value ([1]; conc 2.50E-08, WT No UV) was 0.7915 and 0.7888, the “WST-1 raw signal (Figure 5h)” value ([1]; conc 3.13E-09, 125 mJ/cm2 WT) was 0.139 and 0.1466 and the “WST-1 raw signal (Figure 5h)” value ([1]; conc 3.13E-09, WT No UV) was 3.3417 and 3.4651. For the same compound, the “WST-1 raw signal (Figure 5h)” value ([1]; conc 3.91E-10, 125 mJ/cm2 WT) was 3.3908 and 3.3132, the “WST-1 raw signal (Figure 5h)” value ([1]; conc 3.91E-10, WT No UV) was 3.3655 and 3.4278 and the “WST-1 raw signal (Figure 5h)” value ([1]; conc 5.00E-08, 125 mJ/cm2 WT) was 0.1258 and 0.124. For the same compound, the “WST-1 raw signal (Figure 5h)” value ([1]; conc 5.00E-08, WT No UV) was 0.1245 and 0.1268, the “WST-1 raw signal (Figure 5h)” value ([1]; conc 6.25E-09, 125 mJ/cm2 WT) was 0.1242 and 0.126 and the “WST-1 raw signal (Figure 5h)” value ([1]; conc 6.25E-09, WT No UV) was 3.3238 and 3.2658. The “WST-1 raw signal (Figure 5h)” value ([1]; conc 7.81E-10, 125 mJ/cm2 WT) was 3.145 and 2.7907, the “WST-1 raw signal (Figure 5h)” value ([1]; conc 7.81E-10, WT No UV) was 3.4055 and 3.3833 and the “effect of UVA radiation on cytotoxicity” value ([1]; with UVA) was “dramatically increased the cytotoxicity”. For the same compound, the “dose-limiting toxicities (kind)” value [2] was “palmar–plantar erythrodysesthesia and phototoxicity”, the “dose recommended for further study” value ([2]; intravenously once every 3 weeks (q3w)) was 170 mg/m^2 and the “G4 binding and stabilization” value [3] was “potent G4 binder and stabilizer”.
